This is an account of results in patent US20110306638A1, “BENZISOXAZOLE PIPERIDINYL DERIVATIVES, PHARMACEUTICAL COMPOSITIONS COMPRISING THE DERIVATIVES AND THEIR USE” (NHWA PHARMA. CORPORATION, priority 2008, published 2011).

For orientation: inhibition means the relative decrease from the control value, in per cent. One may read the IC50 as the concentration at which inhibition is half-maximal. Usually Ki stands for the equilibrium dissociation constant of an inhibitor or competing ligand from its target.

Experiment [1] concerns mice. In words: Sedative effects in mice (spontaneous activities). It is filed as in vivo. Also noted: unit not given here. The settings on record: single dose 20 mg/kg. As for the experimental part: Spontaneous activities of the mice were recorded by alternating current tube, Sedative effects were tested after single dose (20 mg/kg).
Experiment [2] deals with T1, 5-HT2A receptor (Homo sapiens, UniProt P28223).
T1 construct: expressed in transfected cells; host or cells: HEK293
T1 sequence (P28223 whole entry): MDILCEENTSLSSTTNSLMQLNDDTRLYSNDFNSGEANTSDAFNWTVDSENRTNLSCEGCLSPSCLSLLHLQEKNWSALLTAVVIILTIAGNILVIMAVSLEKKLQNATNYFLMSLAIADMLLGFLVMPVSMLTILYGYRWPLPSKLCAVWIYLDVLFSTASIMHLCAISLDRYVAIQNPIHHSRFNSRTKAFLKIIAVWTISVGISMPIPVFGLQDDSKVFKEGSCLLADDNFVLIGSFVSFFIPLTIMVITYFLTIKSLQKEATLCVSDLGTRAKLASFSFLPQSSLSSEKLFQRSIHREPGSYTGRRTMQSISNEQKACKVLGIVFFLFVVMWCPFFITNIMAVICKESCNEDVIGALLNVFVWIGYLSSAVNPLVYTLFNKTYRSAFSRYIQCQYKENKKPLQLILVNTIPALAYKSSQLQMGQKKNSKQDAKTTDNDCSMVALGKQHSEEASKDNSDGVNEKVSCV
In words: In-vitro competitive binding to 5-HT2A receptor, [3H]-Ketanserin, transformed HEK293 cells. The settings on record: for inhibition at 10 µM: read-out: 5-HT2A [3H]-Ketanserin inhibition percentage; for IC50 / Ki: affinity to 5-HT2A receptor, concentration gradient test; for inhibitory activity on 5-HT2A (in words): compared with Aripiprazole. As for the experimental part: All test samples were dissolved in DMSO at a concentration of 0.01 mol/L, and then diluted with deionized water to 100 umol/L.
HEK293 cells were transformed with plasmid carriers containing the gene coding for 5-HT2A receptor protein by using calcium phosphate transformation. Stable cell strains which could stably express 5-HT2A receptor protein were obtained from the transformed cells by cultivating in a culture media containing G418, selecting monoclones of the cell and performing radioactive ligand binding assay.
Beckman LS 6500 Scintillation Counter.
HEK-293 cells were infected with recombined viruses containing various genes described above. […] Cells were centrifuged at 1000 rpm for 5 min Culture media was discarded, and cell bodies were collected and stored at −20° C. in a freezer. The cell bodies were resuspended with Tris-HCl reaction buffer during assay.
After incubation at 37° C. for 15 min, the reaction mixture was immediately transferred into ice bath to terminate the reaction; the reaction mixture was quickly filtered through GF/C glass cellulose filter on a Millipore cell sample collector, and was then washed with eluting solution (50 mM Tris-HCl, PH 7.7, 3 ml×3) and dried in a microwave for 8-9 min. The filter was transferred into a 0.5 ml centrifuge tube, and 500 μl lipid soluble scintillation fluid was added. The centrifuge tube was allowed to stand in darkness for more than 30 min. Radioactivity was determined by counting Inhibition percentage of each compound on isotope ligand binding was calculated according to the following equation:
inhibition percentage(I %)=cpm of overall binding tube−cpm of compound/cpm of overall binding tube−cpm of nonspecific binding tube×100%.
Each compound was tested in two duplicate test tubes and two separate tests were performed.

The target in experiment [3] is T2, 5-HT reuptake by brain synapses (Rattus norvegicus, UniProt P31652).
T2 construct: forehead cortex was obtained for [^3H]5-HT, [^3H]NA reuptake test; from tissue; host or cells: rat (SD) forebrain cortex synaptosomes
T2 sequence (P31652 whole entry): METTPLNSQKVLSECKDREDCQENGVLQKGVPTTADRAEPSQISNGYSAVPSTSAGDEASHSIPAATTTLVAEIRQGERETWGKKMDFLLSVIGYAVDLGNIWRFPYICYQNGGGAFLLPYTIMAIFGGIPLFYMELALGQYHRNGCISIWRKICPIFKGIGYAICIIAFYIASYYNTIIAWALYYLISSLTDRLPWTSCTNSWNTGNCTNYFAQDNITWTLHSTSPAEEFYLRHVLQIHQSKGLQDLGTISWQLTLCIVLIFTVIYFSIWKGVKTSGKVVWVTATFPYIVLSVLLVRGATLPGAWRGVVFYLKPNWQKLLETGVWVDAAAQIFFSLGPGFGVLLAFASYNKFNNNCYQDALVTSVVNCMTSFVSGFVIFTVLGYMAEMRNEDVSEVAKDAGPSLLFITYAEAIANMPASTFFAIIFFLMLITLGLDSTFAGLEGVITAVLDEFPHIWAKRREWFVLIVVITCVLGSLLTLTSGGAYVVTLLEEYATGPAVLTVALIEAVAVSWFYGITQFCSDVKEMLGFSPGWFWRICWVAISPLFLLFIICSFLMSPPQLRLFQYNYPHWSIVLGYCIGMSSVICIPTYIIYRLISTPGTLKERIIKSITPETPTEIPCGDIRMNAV
Briefly: [3H]5-HT reuptake test in rat brain synapses. It counts as biochemical. Particulars: for inhibitory activity on 5-HT reuptake (in words): at 10 μmol/L, compared with Dutoxetine; for inhibition at 10 µM: final concentration 10 umol/L, rat brain synapses, read-out: 5-HTU [3H] 5-HT reuptake inhibition percentage Mean. As to the method: The method was as follows:
Male SD rats were killed by cervical dislocation, heads were immediately cut and brains were obtained and put on ice, related brain tissues were dissected (forehead cortex was obtained for [^3H]5-HT, [^3H]NA reuptake test, corpus striatum was obtained for [^3H]DA reuptake).
After the sample was weighed, 10 folds (V/W) ice cold 0.32 mol/L sucrose solution was added.
According to [a. […] 5-HT was added and after incubation in water bath at 37° C. for 10 min, the reaction mixture was immediately taken out of the water bath and 2 ml ice cold 150 mmol/L Tris-HCl was added to terminate the reaction. The sample was collected on a round glass fiber filter by vacuum filtration and washed three times with 3 ml ice cold Tris-HCl buffer. The filter membrane was removed, dried in a far-infrared oven for 15 min, then transferred into a EP tube, in which 1.5 ml scintillation fluid was added, left overnight and detected by a scintillation counter. The test sample was not added into solvent controlled overall binding tube or non-specific binding tube. 50 μl solvent was added into the overall binding tube, and in [^3H] 5-HT reuptake test, 600 μmol/L cocaine was added into the non-specific binding tube.

For experiment [4], the system named is Kunming mice. Briefly: Acetic acid-induced abdominal writhing test in mice. It is filed as in vivo. As to the method:
Kunming mice, SPF KM mice purchased from […] SLAC LABORATORY ANIMAL CO. LTD and kept in normal environment.
The compounds were dissolved in water for injection at a concentration of 4 mg/ml, 2 mg/ml and 1 mg/ml and were given intragastrically to animals.
(§1) Three different doses (10, 20, and 40 mg/kg) were administered to the test groups.
Aspirin was used as a positive control and acetic acid writhing test was used.
30 mice (half male and half female) weighing 18-23 g were divided into five groups, including negative control group, positive control group, low dose group, medium dose group and high dose group:
Mice in test group received test drug (10 mg/kg, 20 mg/kg, 40 mg/kg) via intragastric administration. Negative control group received physiological saline (20 ml/kg) via oral administration. Positive control group received aspirin (200 mg/kg) via oral administration. One hour later, each group received 0.7% acetic acid 10 ml/kg intraperitoneally. Five minutes later, the number of writhes was counted within the subsequent 15 min period; inhibition percentage of writhing response in each test group was calculated by the following equation: […]
On the technique in general: An intraperitoneal irritant provokes the stretching counted in writhing tests.

For experiment [5], the system named is Kunming mice. Briefly: Hot-plate test in mice. It is filed as in vivo. Particulars: 1 h post dose. As for the experimental part:
Kunming mice, SPF KM mice were purchased from […] SLAC LABORATORY ANIMAL CO. LTD and kept in normal environment.
The compounds were dissolved in water for injection at a concentration of 4 mg/ml, 2 mg/ml and 1 mg/ml and were given subcutaneously to animals.
as §1
Morphine was used as a positive control and hot plate test was used.
30-40 mice (half male and half female) weighed from 18 to 23 gram were used. First, each mouse was placed on a hot plat at 55° C. to determine basic pain threshold for 2-3 times. Those animals with basic pain threshold of 5-30 s were qualified, unqualified mice were not used. 30 qualified mice were divided into five groups, including negative control group, positive control group, low-dose group, medium-dose group and high-dose group:
Mice in test groups received test sample solution (10 mg/kg, 20 mg/kg, 40 mg/kg) via subcutaneous injection in the neck. Positive control group received subcutaneous injection of morphine (2 mg/kg). One hour later, pain threshold values were determined for mice in each group as post-drug pain threshold. Percentage increase in pain threshold was calculated according to the following equation: […]
On the technique in general: Hot-plate and tail-flick tests time the reaction to a heat stimulus.

[6] abbreviates: 10 mg/kg intragastric administration.
Where [7] appears, read: 20 mg/kg intragastric administration.
Setting [8] is: 40 mg/kg intragastric administration.

Read-outs that look alike come from different tables or passages of the source. Marks after values point to notes of the source that are not given here.

On to `COC(=O)c1ccc2ccn(CCCN3CCC(c4noc5cc(F)ccc45)CC3)c2c1` [II-7, methyl 1-(3-(4-(6-fluorobenzo[d]isoxazol-3-yl)piperidin-1-yl)propyl)-1H-indole-6-carboxylate], for which the Sedative effect in experiment [1] is on record as 96**.
Same read-out and setting: as for `N#Cc1ccc2ccn(OCCN3CCC(c4noc5cc(F)ccc45)CC3)c2c1` [IV-1, 1-(2-(4-(6-fluorobenzo[d]isoxazol-3-yl)piperidin-1-yl)ethoxy)-1H-indole-6-carbonitrile], the figure is 20.
In the case of `Fc1ccc2c(C3CCN(CCCCn4cnc5ccccc54)CC3)noc2c1` [II-12, 3-(1-(4-(1H-benzo[d]imidazol-1-yl)butyl)piperidin-4-yl)-6-fluorobenzo[d]isoxazole], the inhibition at 10 µM in experiment [2] is 99.5%. Besides, the Sedative effect in experiment [1] is 52*.
As to `Fc1ccc2c(C3CCN(CCCn4ccc5ccc(F)cc54)CC3)noc2c1` [II-5, 6-fluoro-3-(1-(3-(6-fluoro-1H-indol-1-yl)propyl)piperidin-4-yl)benzo[d]isoxazole], the Sedative effect in experiment [1] was 65*.
As to `Fc1ccc2c(C3CCN(CCCCn4ccc5ccccc54)CC3)noc2c1` [II-3, 3-(1-(4-(1H-indol-1-yl)butyl)piperidin-4-yl)-6-fluorobenzo[d]isoxazole], the IC50 in experiment [2] was found to be 1.66 nM. Further, the inhibitory constant (Ki) in experiment [2] was 1.12 nM. Further, in experiment [2], the “inhibitory activity on 5-HT2A (in words)” value is “potent inhibitory activities”. The inhibition at 10 µM is 100% in experiment [2] (final concentration 10 umol/L) and 95.9% in experiment [3]. Moreover, in experiment [3], the “inhibitory activity on 5-HT reuptake (in words)” value was “potent inhibitory activities”. The “Inhibition percentage of writhing response” value (shortened to “Inhibition percentage”) in experiment [4] (setting [6]) is 98.65** %; in experiment [4] (setting [7]), 100.0** %; in experiment [4] (setting [8]) it was 100.0** %. Moreover, the figures for the “Percentage increase in pain threshold” value in experiment [5] (10 mg/kg S.c.), in experiment [5] (20 mg/kg S.c.) and in experiment [5] (40 mg/kg S.c.) were 95.48* %, 194** % and 133%, respectively. Also, in experiment [1], the Sedative effect was found to be 35.
In experiment [2], `Fc1ccc2c(C3CCN(CCCCn4ccc5ccc(F)cc54)CC3)noc2c1` [II-8, 6-fluoro-3-(1-(4-(6-fluoro-1H-indol-1-yl)butyl)piperidin-4-yl)benzo[d]isoxazole] displayed an IC50 of 5.33 nM. This compound registered a Ki in experiment [2] of 2.79 nM. Also, the “inhibitory activity on 5-HT2A (in words)” value in experiment [2] is reported as “potent inhibitory activities”. Moreover, the inhibition at 10 µM was found to be 100% in experiment [2] (final concentration 10 umol/L) and 107% in experiment [3]. Further, the “inhibitory activity on 5-HT reuptake (in words)” value in experiment [3] is “potent inhibitory activities”. Besides, the “Inhibition percentage” value is reported as 95.88* % in experiment [4] (setting [6]), 96.46** % in experiment [4] (setting [7]) and 100.0** % in experiment [4] (setting [8]). For the same compound, the results for the “Percentage increase in pain threshold” value in experiment [5] (10 mg/kg S.c.), in experiment [5] (20 mg/kg S.c.) and in experiment [5] (40 mg/kg S.c.) were 97.49%, 160.50** % and 172.81* %, respectively. For the same compound, the Sedative effect in experiment [1] is given as 42*.
Turning to `Fc1ccc2c(C3CCN(CCCCn4ccc5ccc(Cl)cc54)CC3)noc2c1` [II-10, 3-(1-(4-(6-chloro-1H-indol-1-yl)butyl)piperidin-4-yl)-6-fluorobenzo[d]isoxazole], the Sedative effect in experiment [1] is given as 99**.
In the case of `CC(=O)Oc1ccccc1C(=O)O` [Aspirin, reference compound], the “Inhibition percentage” value in experiment [4] (positive control, 200 mg/kg oral, 1 h before acetic acid) is 95.05** %.
Take `N#Cc1ccc2ccn(OCCCN3CCC(c4noc5cc(F)ccc45)CC3)c2c1` [IV-2, 1-(3-(4-(6-fluorobenzo[d]isoxazol-3-yl)piperidin-1-yl)propoxy)-1H-indole-6-carbonitrile]: in experiment [1], the Sedative effect was 52*.
For the compound `Fc1ccc2c(C3CCN(CCCCCn4ccc5ccccc54)CC3)noc2c1` [II-4, 3-(1-(5-(1H-indol-1-yl)pentyl)piperidin-4-yl)-6-fluorobenzo[d]isoxazole], in experiment [2], the inhibition at 10 µM came out at 99.9%. The Sedative effect in experiment [1] is given as 91**.
On to `Fc1ccc2c(C3CCN(CCCn4ccc5ccccc54)CC3)noc2c1` [II-2, 3-(1-(3-(1H-indol-1-yl)propyl)piperidin-4-yl)-6-fluorobenzo[d]isoxazole], for which the Sedative effect in experiment [1] is 44*.
For the compound `Fc1ccc2c(C3CCN(CCCn4cnc5ccccc54)CC3)noc2c1` [II-11, 3-(1-(3-(1H-benzo[d]imidazol-1-yl)propyl)piperidin-4-yl)-6-fluorobenzo[d]isoxazole], the inhibition at 10 µM in experiment [2] worked out at 99.6%. Moreover, the Sedative effect in experiment [1] is listed as 0.
The matching figures for `Fc1ccc2c(C3CCN(CCn4ccc5ccccc54)CC3)noc2c1` [II-1, 3-(1-(2-(1H-indol-1-yl)ethyl)piperidin-4-yl)-6-fluorobenzo[d]isoxazole]: 99.5% and 43*.
In the case of `Fc1ccc2c(C3CCN(CCCn4cnc5ccc(F)cc54)CC3)noc2c1` [III-1, 6-fluoro-3-(1-(3-(6-fluoro-1H-benzo[d]imidazol-1-yl)propyl)piperidin-4-yl)benzo[d]isoxazole], the Sedative effect in experiment [1] is 54*.
Consider `CN1CC[C@]23c4c5ccc(O)c4O[C@H]2[C@@H](O)C=C[C@H]3[C@H]1C5` [Morphine, reference compound], for which the “Percentage increase in pain threshold” value in experiment [5] (positive control, 2 mg/kg S.c., hot plate 55° C.) is recorded as 202.5** %.
Regarding `Fc1ccc2c(C3CCN(CCOn4nnc5ccc(Cl)cc54)CC3)noc2c1` [IV-3, 3-(1-(2-(6-chloro-1H-benzo[d][1,2,3]triazol-1-yloxy)ethyl)piperidin-4-yl)-6-fluorobenzo[d]isoxazole], the inhibition at 10 µM in experiment [2] came out at 92.8%. In addition, the Sedative effect in experiment [1] is 67*.
For `N#Cc1ccc2ncn(CCCCN3CCC(c4noc5cc(F)ccc45)CC3)c2c1` [III-3, 1-(4-(4-(6-fluorobenzo[d]isoxazol-3-yl)piperidin-1-yl)butyl)-1H-benzo[d]imidazole-6-carbonitrile], in experiment [1], the Sedative effect is listed as 52*.
Regarding `Fc1ccc2c(C3CCN(CCCn4ncc5ccccc54)CC3)noc2c1` [II-13, 3-(1-(3-(1H-indazol-1-yl)propyl)piperidin-4-yl)-6-fluorobenzo[d]isoxazole], the Sedative effect in experiment [1] is 66*.
